The results in this text go back to patent publication US8445538B2, “Glucagon receptor antagonist compounds” (Merck Sharp & Dohme Corp., priority 2008, dated 2013).

Usually IC50 stands for the concentration that inhibits the measured activity by half. A low value points to inhibition by little substance.

Structures are written as SMILES.

T1 sequence (P47871 26-477): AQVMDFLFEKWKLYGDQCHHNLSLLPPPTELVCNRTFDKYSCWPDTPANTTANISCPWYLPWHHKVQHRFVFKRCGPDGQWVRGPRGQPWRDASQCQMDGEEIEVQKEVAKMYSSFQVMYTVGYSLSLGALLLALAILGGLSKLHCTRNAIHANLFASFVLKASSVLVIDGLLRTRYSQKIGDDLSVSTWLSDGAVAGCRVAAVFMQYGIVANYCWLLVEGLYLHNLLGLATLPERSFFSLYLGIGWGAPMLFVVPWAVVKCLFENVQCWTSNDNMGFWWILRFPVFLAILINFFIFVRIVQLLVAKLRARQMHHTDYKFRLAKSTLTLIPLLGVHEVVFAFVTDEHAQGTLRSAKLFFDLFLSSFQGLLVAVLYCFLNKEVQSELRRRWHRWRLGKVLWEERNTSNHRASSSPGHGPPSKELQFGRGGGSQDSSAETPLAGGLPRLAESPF

The experiment addresses T1, human glucagon receptor (Homo sapiens, UniProt P47871).
T1 construct: expressed in transfected cells; cell membranes used
Briefly: Glucagon Receptor Binding Assay (125I-glucagon, SPA, CHO cell membranes). Conditions: 125I-Glucagon binding to membranes of CHO cells expressing cloned human glucagon receptor; more active isomer of indicated compounds. As to the method: Glucagon Receptor Binding Assay
A stable CHO (Chinese hamster ovary) cell line expressing cloned human glucagon receptor was maintained as described (Chicchi, et. al. J Biol Chem 272, 7765-9 (1997); Cascieri, et. al. J Biol Chem 274, 8694-7 (1999)). To determine antagonistic binding affinity of compounds, 0.001-0.003 mg of cell membranes from these cells were pre-incubated with 0.100 mg WGA-coated PVT SPA beads (Amersham) for 20 minutes at room temperature in 25 μL of a buffer containing 50 mM Tris-HCl (pH 7.5), 5 mM MgCl2, 2 mM EDTA, 0.1% BSA and 3% glycerol in Costar 384 well plates with clear bottoms (#3706). Next, 25 μL of ^125I-Glucagon (New England Nuclear, Mass.) (1×10^−14 mol per well) and either 1 μL solutions of test compounds or 0.001 mM unlabeled glucagon or DMSO were added and mixed. After 4-12 hours incubation at room temperature, the radioactivity bound to the cell membranes was determined in a radioactive emission detection counter (Wallac-Microbeta). Data were analyzed using the Data Analyzer software program of Merck & Co., Inc. The IC50 values were calculated using non-linear regression analysis assuming single-site competition.
Turning to `CCC[C@H](c1ccc(C(=O)NCCC(=O)O)cc1)C(c1ccc(Cl)cc1)c1ccc(F)c2ccccc12` (stereo partly drawn) [Example 1, N-(4-{(1S)-1-[(4-chlorophenyl)(4-fluoro-1-naphthyl)methyl]butyl}benzoyl)-β-alanine], the IC50 is 3.3 nM.

Molecule `CCC[C@H](c1ccc(C(=O)NCCC(=O)O)cc1)C(c1ccc(Cl)cc1)c1ccc2cc(OC)ccc2c1` (stereo partly drawn) [Example 2, N-(4-{(1S)-1-[(4-chlorophenyl)(6-methoxy-2-naphthyl)methyl]butyl}benzoyl)-β-alanine] came in with a half-inhibitory concentration (IC50) of 0.85 nM.

`CCC[C@H](c1ccc(C(=O)NCCC(=O)O)cc1)C(c1ccc(Cl)cc1)c1ccc2cc(OC(F)F)ccc2c1` (stereo partly drawn) [Example 3, N-[4-((1S)-1-{(4-chlorophenyl)[6-(difluoromethoxy)-2-naphthyl]methyl}butyl)benzoyl]-β-alanine]: the IC50 turned out to be 0.37 nM.

`CCC[C@H](c1ccc(C(=O)NCCC(=O)O)cc1)C(c1ccc(Cl)cc1)c1ccc2cc(C#N)ccc2c1` (stereo partly drawn) [Example 4] registered an IC50 of 1.5 nM. This IC50 lies about 4.1-fold higher than the previous one.

`CCC[C@H](c1ccc(C(=O)NCCC(=O)O)cc1)C(c1ccc(C#N)cc1)c1ccc(F)c2ccccc12` (stereo partly drawn) [Example 5, N-(4-{(1S)-1-[(4-cyanophenyl)(4-fluoro-1-naphthyl)methyl]butyl}benzoyl)-β-alanine] yielded an IC50 of 2.1 nM.

Turning to `CCC[C@H](c1ccc(C(=O)NC[C@H](O)C(=O)O)cc1)C(c1ccc(Cl)cc1)c1ccc2cc(OC)ccc2c1` (stereo partly drawn) [Example 7, (2S)-3-[(4-{(1S)-1-[(4-chlorophenyl)(6-methoxy-2-naphthyl)methyl]butyl}benzoyl)amino]-2-hydroxypropanoic acid], the IC50 stood at 1.7 nM. The IC50 values of the last two molecules are within 1.5-fold of each other.

`CCCC(c1ccc(C(=O)NCCC(=O)O)cc1)C(c1ccc(C)cc1)c1ccc(F)c2ccccc12` (stereo not drawn) [Example 12] registered an IC50 of 4.3 nM.

`CCCC(c1ccc(C(=O)NCCC(=O)O)cc1)C(c1ccc(Cl)cc1)c1ccc(OC)c2ccc(OC)cc12` (stereo not drawn) [Example 21]: the IC50 turned out to be 14.2 nM.

The molecule `CCCC(c1ccc(C(=O)NCCC(=O)O)cc1)C(c1ccc(Cl)cc1)c1c(Cl)cc(OC)c2c(F)cccc12` (stereo not drawn) [Example 30] gave an IC50 of 53 nM.

For `CCCC(c1ccc(C(=O)NCCC(=O)O)cc1)C(c1ccc(Cl)cc1)c1ccc2cc(SC)ccc2c1` (stereo not drawn) [Example 36], the half-maximal inhibitory concentration (IC50) worked out at 0.83 nM.

For `CCCC(c1ccc(C(=O)NCCC(=O)O)cc1)C(c1ccc(Cl)cc1)c1ccc2cc(S(C)(=O)=O)ccc2c1` (stereo not drawn) [Example 37], the IC50 is 2.9 nM.

Consider `CCC[C@H](c1ccc(C(=O)NCC(F)(F)C(=O)O)cc1)C(c1ccc(Cl)cc1)c1ccc(F)c2ccccc12` (stereo partly drawn) [Example 52], for which the IC50 turned out to be 98 nM.

`CCC[C@H](c1ccc(C(=O)NCCS(=O)(=O)O)cc1)C(c1ccc(Cl)cc1)c1ccc(F)c2ccccc12` (stereo partly drawn) [Example 53] gave an IC50 of 3.4 nM.

`CCC[C@H](c1ccc(C(=O)NCc2nnn[nH]2)cc1)C(c1ccc(Cl)cc1)c1ccc(F)c2ccccc12` (stereo partly drawn) [Example 55] had an IC50 of 4 nM.

As for `CCC[C@H](c1ccc(C(=O)Nc2nnn[nH]2)cc1)C(c1ccc(Cl)cc1)c1ccc(F)c2ccccc12` (stereo partly drawn) [Example 56], the IC50 amounted to 7.6 nM.
